According to patent US20080255137A1 (Arena Pharmaceuticals, Inc., priority 2004, published 2008):

Legend:
human 5HT2C receptor = molecular target: T1, human 5HT2C receptor (Homo sapiens, UniProt P28335); assay: Intracellular IP3 (IP) accumulation assay, 5HT2C; format: cell-based; conditions: HEK293 cells transfected with human 5HT2C receptor cDNA
T1 construct: expressed in transfected cells; host or cells: HEK293
T1 sequence (P28335 33-458): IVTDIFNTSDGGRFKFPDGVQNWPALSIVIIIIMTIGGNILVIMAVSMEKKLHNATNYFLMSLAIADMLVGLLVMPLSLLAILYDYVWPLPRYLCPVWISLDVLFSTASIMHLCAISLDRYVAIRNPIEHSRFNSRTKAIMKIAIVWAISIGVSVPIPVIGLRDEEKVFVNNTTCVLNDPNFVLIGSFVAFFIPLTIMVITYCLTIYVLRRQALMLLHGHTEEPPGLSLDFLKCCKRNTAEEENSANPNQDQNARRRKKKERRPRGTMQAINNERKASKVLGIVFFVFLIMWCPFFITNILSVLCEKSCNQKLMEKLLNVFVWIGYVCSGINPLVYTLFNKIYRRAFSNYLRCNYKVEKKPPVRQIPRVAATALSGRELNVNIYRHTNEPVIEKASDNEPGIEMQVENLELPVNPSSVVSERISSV
Method: HEK293 cells were transfected in 15 cm sterile dishes with or without (control) 16 ug of human 5HT2C receptor cDNA [for example see, Saltzman, A. G., et al. Biochem. Biophys. Res. Commun. 181, 1469-1478 (1991)] using 25 ul of lipofectamine. Cells were then incubated for 3-4 hours at 37° C./5% CO2 and then transfection media was removed and replaced with 100 ul of DMEM. Cells were then plated onto 100 cm sterile dishes. The next day cells were plated into 96 well PDL microtiter plates at a density of 55K/0.2 mL. Six hours latter, media was exchanged with [^3H]inositol (0.25 uCi/well) in inositol free DMEM and plates were incubated at 37° C./5% CO2 overnight. The next day, wells were aspirated and 200 ul of DMEM containing test compound, 10 uM pargyline, and 10 mM LiCl was added to appropriate wells. Plates were then incubated at 37° C./5% CO2 for three hours followed aspiration and by addition of fresh ice cold stop solution (1M KOH, 19 mM Na-borate, 3.8 mM EDTA) to each well. Plates were kept on ice for 5-10 min and the wells were neutralized by addition of 200 ul of fresh ice cold neutralization solution (7.5% HCl). Plates were then frozen until further processing is desired. The lysate was then transferred into 1.5 mL Eppendorf tubes and 1 mL of chloroform/methanol (1:2) was added/tube. […]

5HT2B receptor = 5HT2B receptor (Homo sapiens, UniProt P41595); assay: Activity against the 5HT2B receptor (selectivity); format: cell-based
Chain of 5HT2B receptor (P41595 whole entry): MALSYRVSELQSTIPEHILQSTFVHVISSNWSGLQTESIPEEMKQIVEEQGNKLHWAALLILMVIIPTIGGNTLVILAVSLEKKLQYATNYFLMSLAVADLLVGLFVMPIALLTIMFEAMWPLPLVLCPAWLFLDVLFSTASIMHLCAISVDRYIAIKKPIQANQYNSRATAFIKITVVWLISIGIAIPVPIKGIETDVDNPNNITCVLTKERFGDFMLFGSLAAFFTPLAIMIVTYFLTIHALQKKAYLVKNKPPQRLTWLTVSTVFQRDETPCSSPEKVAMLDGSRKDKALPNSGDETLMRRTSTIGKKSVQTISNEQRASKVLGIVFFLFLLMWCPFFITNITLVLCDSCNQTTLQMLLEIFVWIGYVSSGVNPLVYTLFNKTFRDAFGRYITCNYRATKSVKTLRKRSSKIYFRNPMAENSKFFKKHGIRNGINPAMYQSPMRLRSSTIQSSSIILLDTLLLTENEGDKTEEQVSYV

5HT2A receptor = 5HT2A receptor (Homo sapiens, UniProt P28223); assay: EC50 against the 5HT2A receptor (selectivity); format: cell-based
Chain of 5HT2A receptor (P28223 whole entry): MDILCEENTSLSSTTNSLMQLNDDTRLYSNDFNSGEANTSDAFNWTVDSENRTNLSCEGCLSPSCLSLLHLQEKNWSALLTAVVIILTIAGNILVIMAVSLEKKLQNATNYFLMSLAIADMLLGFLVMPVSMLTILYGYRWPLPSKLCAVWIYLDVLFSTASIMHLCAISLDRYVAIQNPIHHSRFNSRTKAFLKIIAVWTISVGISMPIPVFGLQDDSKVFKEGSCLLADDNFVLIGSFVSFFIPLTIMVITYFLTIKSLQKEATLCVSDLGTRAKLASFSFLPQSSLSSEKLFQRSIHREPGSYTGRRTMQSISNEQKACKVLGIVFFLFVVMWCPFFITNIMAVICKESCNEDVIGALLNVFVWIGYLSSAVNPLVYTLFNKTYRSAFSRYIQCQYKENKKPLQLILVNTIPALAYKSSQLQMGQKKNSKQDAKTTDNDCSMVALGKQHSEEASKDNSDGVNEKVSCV

guinea pigs = conditions: repeat administration; cited from earlier work

| Compound | EC50 (human 5HT2C receptor) [nM] | activity against the 5HT2B receptor (5HT2B receptor) | EC50 (5HT2A receptor) [nM] | amyloid precursor protein (APPs) secretion (guinea pigs) | levels of Aβ production in vivo (guinea pigs) |
| --- | --- | --- | --- | --- | --- |
| C[C@@H]1CNCCN1c1cc(F)cc(-c2ccsc2)c1 [Compound 1] | 2 | – | – | – | – |
| C[C@@H]1CNCCN1c1cccc(-c2ccccc2)c1F [Compound 10, (R)-1-(2-Fluoro-biphenyl-3-yl)-2-methyl-piperazine] | 5 | essentially inactive | ~1700 | – | – |
| C[C@H](N)Cc1cccc(C(F)(F)F)c1 [DEXNOR, dexnorfenfluramine] | – | – | – | stimulated | reducing |
